# Test results reported in patent US20160067270A1, “USE OF GINSENOSIDE F2 FOR PROPHYLAXIS AND TREATMENT OF LIVER DISEASE” (priority 2014, published 2016).
# Tests used:
# male mice = experiment: Measurement of serum ALT, AST, TG and total cholesterol levels in ethanol-fed mice; assay type: in vivo; conditions: 50 mg/kg oral with 3 g/kg ethanol daily for 2 weeks
# Method: (§1) 50 mg/kg of ginsenoside F2 (indicated by GF2 in Drawing) dissolved in 3 g/kg of ethanol, together with a normal diet, were orally administered to 8-week-old male mice (weighing 25 g to 28 g) between 3 PM and 4 PM every day for 2 weeks. After 2 weeks, they were sacrificed, and the following experiment was performed.
# Blood was collected from mouse abdominal aorta and centrifuged using a centrifuge at 3,300 rpm for 10 minutes to separate only the serum. The levels of ALT (alanine aminotransferase) and AST ([…]) in the serum were measured using a kit of IDEXX Laboratories (USA) in accordance with the manufacturer's instructions by VetTEST (IDEXX, USA). Further, 50 mg of the hepatic tissue was excised and ground, and then a chloroform-methanol (2:1) solution was added thereto, followed by centrifugation. The lipid components contained in the hepatic tissue were extracted, and the levels of triglyceride (TG) and total cholesterol in the extract solution were measured using a kit of IDEXX Laboratories (USA) in accordance with the manufacturer's instructions by VetTEST.
# liver tissue = experiment: Liver histological analysis (H&E, TUNEL, Oil-red O staining); assay type: in vivo, mice; conditions: 50 mg/kg oral with 3 g/kg ethanol, 2 weeks
# [1] = test system: hepatocytes separated from mouse liver; experiment: Lipogenesis-related index in hepatocytes separated from mouse liver; assay type: in vivo; conditions: EtOH+GF2 vs EtOH+Vehicle; FIG. 4a
# Method: as §1
# [2] = test system: hepatic stellate cells separated from mouse liver; experiment: Lipogenesis-related index in hepatic stellate cells separated from mouse liver; assay type: in vivo; conditions: EtOH+GF2 vs EtOH+Vehicle; FIG. 4b
# Method: as §1
# liver tissues = experiment: Western blotting of proteins extracted from the liver tissues; assay type: in vivo, mice; conditions: FIG. 4c
# Method: as §1
# Expression of fat oxidation-inducing pAMPK was increased and expression of lipogenic SREBP1c and FAS was reduced by administration of ginsenoside F2.
# co-cultured hepatocytes = experiment: Co-culture with ethanol: co-cultured hepatocytes (Western blotting, real-time PCR); assay type: cell-based, mice; conditions: 100 mM ethanol 12 hours, then 30 μM for 6 or 12 hours
# Method: (§2) During the culture, they were treated with 100 mM ethanol for 12 hours, and then 30 μM ginsenoside F2 for 6 hours or 12 hours.
# [3] = test system: co-cultured hepatic stellate cells; experiment: Co-culture with ethanol: co-cultured hepatic stellate cells; assay type: cell-based, mice; conditions: 100 mM ethanol 12 hours, then 30 μM for 6 or 12 hours; FIG. 5d
# Method: as §2
# [4] = test system: human hepatocyte cell line HepG2A; experiment: LXR-mediated fat synthesis in HepG2A (real-time PCR); assay type: cell-based
# Method: To examine a fat synthesis inhibition mechanism of ginsenoside F2, human hepatocyte cell line HepG2A was treated with 30 μM ginsenoside F2, and 30 minutes later, further treated with 10 μM TO901317, which induces fat synthesis as an LXR agonist stimulating fatty acid synthesis, followed by culture for 9 hours.
# Further, HepG2A was treated with ginsenoside F2 by varying its concentration from 0 μM to 100 μM, and cultured for 12 hours.
# Hepatic stellate cells = Hepatic stellate cells treated with TO901317 (real-time PCR and Western blotting); assay type: cell-based; conditions: 30 μM, 30 minutes later 10 μM TO901317, culture 12 hours
# Method: Hepatic stellate cells were treated with 30 μM of ginsenoside F2, and 30 minutes later, further treated with 10 μM TO901317, followed by culture for 12 hours. FIGS. 5f and 5g show the results of real-time PCR and Western blotting of the cultured hepatic stellate cells.
# [5] = test system: monocytes isolated from the liver; experiment: Flow cytometry of monocytes / inflammatory cells isolated from the liver of ethanol-fed mice; assay type: in vivo; conditions: 3 g/kg ethanol daily for 2 weeks
# Method: (§3) Mice were fed with 3 g/kg of ethanol together with a normal diet every day for 2 weeks. In this regard, Group 1 (E+Veh) was fed with vehicle, and Group 2 (E+GF2) was fed with ginsenoside F2.
# Thereafter, monocytes were isolated from the liver, and stained with the macrophage markers, CD11b and F4/80, followed by flow cytometry. As a result, treatment of ginsenoside F2 reduced a percentage of macrophage (FIG. 6a). Flow cytometry was also performed using the neutrophil markers CD11b and Gr-1. As a result, treatment of ginsenoside F2 reduced a percentage of neutrophil (FIG. 6b).
# Further, inflammatory cells in the liver were stained with regulatory T cell (Treg) markers, CD4, CD25, and Foxp3. As a result, treatment of ginsenoside F2 increased regulatory T cells, and decreased Th17 cells (IL-17 and CD4 positive) which are one of proinflammatory cells.
# isolated monocytes = experiment: Real-time PCR of isolated hepatic monocytes of ethanol-fed mice; assay type: in vivo; conditions: FIG. 6d
# Text: as §3
# (§4) Further, the isolated monocytes were subjected to real-time PCR. As a result, expression of the inflammatory cytokines TNF-α, IL-6, and IL-17 increased by alcohol was inhibited by ginsenoside F2, and expression of anti-inflammatory cytokine IL-10 was increased thereby (FIG. 6d). These effects are consistent with the results of ELISA of mouse serum (FIG. 6e).
# mouse serum = experiment: ELISA of mouse serum (cytokines); assay type: in vivo; conditions: compared with real-time PCR results; FIG. 6e
# Text: as §3, §4
# Naive T cells = experiment: Differentiation of naive T cells into IL-17-producing Th17 cells; assay type: cell-based, mice; conditions: 0 μM to 30 μM
# Method: Naive T cells were isolated from mice, and treated with 5 ng/mL TGF-β1 and 20 ng/mL IL-6, and then cultured in a CD3/28 antibody-coated dish for 3.5 days to differentiate the cells into proinflammatory Th17 cells (T helper 17 cells). In this regard, the cells were also treated with ginsenoside F2 by varying its concentration (0 μM to 30 μM), and markers for Th17 cells were examined, and the results are shown in FIGS. 7a to 7c. N represents naive T cells treated with none of TGF-β1, IL-6, and ginsenoside F2.
# [6] = test system: IL-10-deficient male mice; experiment: IL-10-deficient mice: serum levels and necrotic foci of liver tissue; assay type: in vivo; conditions: 50 mg/kg oral with 3 g/kg ethanol daily for 2 weeks
# Method: (§5) 8-week-old IL-10-deficient male mice (weighing 25 g to 28 g) were orally administered with 3 g/kg ethanol and 50 mg/kg ginsenoside F2, together with a normal diet, every day for 2 weeks (E+GF2). A control group was fed with an equal amount of ethanol and vehicle instead of ginsenoside F2 (E+Veh). 2 weeks later, the sera, liver tissues, and hepatic monocytes were obtained from the mice by autopsy. Thereafter, in the same manner as in Example 1. (1), the serum ALT, AST, TG, and cholesterol levels were measured, and necrotic foci were examined in the liver tissue to count the number of necrotic foci in two sections of the liver. In the hepatic monocytes, macrophage and neutrophil expression levels were examined by flow cytometry using F4/80 or Gr1 antigen marker.
# hepatic monocytes = experiment: IL-10-deficient mice: hepatic monocytes (flow cytometry, real-time PCR); assay type: in vivo
# Method: as §5
# [7] = test system: breast cancer stem cells (CSCs); conditions: Mai T T et al. 2012; cited from earlier work
# glioblastoma = conditions: xenograft model in SD rats; Shin J Y et. al. 2012; cited from earlier work
# [8] = 0 μM to 100 μM, cultured for 12 hours, FIG. 5f
# [9] = 30 μM, 30 minutes later 10 μM TO901317, culture 9 hours, real-time PCR, FIG. 5e
# [10] = 5 ng/mL TGF-β1 and 20 ng/mL IL-6, 3.5 days, FIGS. 7a and 7b
# [11] = 50 mg/kg, 2 weeks, flow cytometry, FIGS. 8d and 8e
# [12] = real-time PCR using monocytes, FIG. 8h
compound,measurement,setting,value
CC(C)=CCC[C@](C)(O[C@@H]1O[C@H](CO)[C@@H](O)[C@H](O)[C@H]1O)[C@H]1CC[C@]2(C)[C@@H]1[C@H](O)C[C@@H]1[C@@]3(C)CC[C@H](O[C@@H]4O[C@H](CO)[C@@H](O)[C@H](O)[C@H]4O)C(C)(C)[C@@H]3CC[C@]12C [ginsenoside F2],total cholesterol level increased by alcohol,male mice; FIG. 2,reduced
same,liver injury index ALT level,male mice; FIG. 2(a),did not significantly increase
same,AST level,male mice; FIG. 2(b),lower
same,"fatty liver index, TG level",male mice; FIG. 2(c),reduced to the normal level
same,Triglyceride accumulation (Oil-red O staining),liver tissue; FIG. 3a,reduced
same,cell damage (TUNEL staining),liver tissue; FIG. 3a,reduced
same,ethanol-induced inflammation (H&E staining),liver tissue; FIG. 3a,reduced
same,TUNEL-positive cell death caused by alcohol administration (statistical analysis),liver tissue; FIG. 3b,remarkably reduced
same,triglycerides in the liver tissue (statistical analysis),liver tissue; FIG. 3c,remarkably reduced
same,expression of ADH1,[1],significantly reduced
same,expression of CB1R,[1],significantly reduced
same,expression of CYP2e1,[1],significantly reduced
same,expression of FAS,[1],significantly reduced
same,expression of SREBP1c,[1],significantly reduced
same,"expression of DAGL-α,β",[2],significantly reduced
same,fatty acid amide hydrolase (FAAH) expression,[2],significantly increased
same,Expression of fat oxidation-inducing pAMPK,liver tissues,increased
same,expression of lipogenic FAS,liver tissues,reduced
same,expression of lipogenic SREBP1c,liver tissues,reduced
same,expression of lipogenic FAS,"co-cultured hepatocytes; Western blotting, FIG. 5b",decreased
same,expression of lipogenic SREBP1c,"co-cultured hepatocytes; Western blotting, FIG. 5b",decreased
same,expression of lipolytic pAMPK,"co-cultured hepatocytes; Western blotting, FIG. 5b",increased
same,expression of CB1R,"co-cultured hepatocytes; real-time PCR, FIG. 5c",reduced
same,expression of FAS,"co-cultured hepatocytes; real-time PCR, FIG. 5c",reduced
same,expression of SREBP1c,"co-cultured hepatocytes; real-time PCR, FIG. 5c",reduced
same,"expression of DAGL-α,β",[3],reduced
same,concentration at which an excellent inhibitory effect on SREBP1c and FAS expression was observed,[4]; [8],≥ 40 µM
same,expression of FAS,[4]; [8],reduced
same,expression of SREBP1c,[4]; [8],reduced
same,expression of FAS increased by LXR agonist TO901317,[4]; [9],inhibit
same,expression of SREBP1c increased by LXR agonist TO901317,[4]; [9],inhibit
same,expression of glutamate receptor mGluR1 or 5,Hepatic stellate cells,significantly increased
same,Th17 cells (IL-17 and CD4 positive),[5]; E+GF2 vs E+Veh,decreased
same,"regulatory T cells (CD4, CD25, Foxp3)",[5]; E+GF2 vs E+Veh,increased
same,"percentage of macrophage (CD11b, F4/80)","[5]; E+GF2 vs E+Veh, FIG. 6a",reduced
same,"percentage of neutrophil (CD11b, Gr-1)","[5]; E+GF2 vs E+Veh, FIG. 6b",reduced
same,percentage of CD4 T cells,[5]; FIG. 6c,no significant effects
same,percentage of CD8 T cells,[5]; FIG. 6c,no significant effects
same,percentage of NK cells,[5]; FIG. 6c,no significant effects
same,percentage of NKT cells,[5]; FIG. 6c,no significant effects
same,expression of anti-inflammatory cytokine IL-10,isolated monocytes,increased
same,expression of inflammatory cytokine IL-6 increased by alcohol,isolated monocytes,inhibited
same,expression of inflammatory cytokine IL-17 increased by alcohol,isolated monocytes,inhibited
same,expression of inflammatory cytokine TNF-α increased by alcohol,isolated monocytes,inhibited
same,"cytokine effects (TNF-α, IL-6, IL-17, IL-10) by ELISA of mouse serum",mouse serum,consistent
same,IL-17-expressing Th17 cells (FACS),Naive T cells; [10],decreased
same,anti-inflammatory cytokine IL-10 (FACS),Naive T cells; [10],increased
same,Th17 cell-specific transcription factor RORγt,"Naive T cells; real-time PCR, FIG. 7c",decreased
same,Th17 cell-specific transcription factor STAT3,"Naive T cells; real-time PCR, FIG. 7c",decreased
same,expression of Abca1,"Naive T cells; real-time PCR, FIG. 7c",decreased
same,ALT level,[6]; FIG. 8a,no significant effects
same,TG level,[6]; FIG. 8a,no significant effects
same,cholesterol level,[6]; FIG. 8a,no significant effects
same,necrotic foci of the liver tissue,[6]; FIGS. 8b and 8c,no great changes
same,other immune cells,"hepatic monocytes; 50 mg/kg, 2 weeks, FIG. 8f",no significant effects
same,CD4+CD25+Foxp3+ regulatory T cells,"hepatic monocytes; 50 mg/kg, 2 weeks, FIG. 8g",increased
same,expression of macrophage (F4/80),hepatic monocytes; [11],no significant effects
same,expression of neutrophil (Gr1),hepatic monocytes; [11],no significant effects
same,expression of Foxp3,hepatic monocytes; [12],increased
same,expression of inflammatory cytokine IL-6,hepatic monocytes; [12],increased
same,expression of inflammatory cytokine IL-17,hepatic monocytes; [12],increased
same,cell apoptosis in breast cancer stem cells,[7],induces cell apoptosis accompanied by autophagy
same,anti-cancer effects on glioblastoma,glioblastoma,exhibits anti-cancer effects
